Source: patent US7709223B2, “Method for detecting bacteria with chromogenic substrates for β-D-ribofuranosidase” (priority 2001, dated 2010)
Counter-ions that a name gives are not always drawn.

Assays:
[1] = test system: Yersinia enterocolitica; test: Aluminium salt-containing medium with mixed culture; assay type: cell-based; settings: mixed culture of E. coli and Yersinia enterocolitica
Description: (§1) The substrate was evaluated using the general method of example 2 but using a range of different metal salts and a culture of E. coli alone. The metal salts shown in Table 5, below, were used at a concentration of 500 mg/l.
(§2) When the aluminium salt-containing medium was used with a mixed culture of E. coli and Yersinia enterocolitica, the E. coli colonies were bright yellow and stood out very clearly.

[2] = test system: E. coli; test: as above; assay type: cell-based; settings: mixed culture of E. coli and Yersinia enterocolitica
Description: as §1, §2

[3] = test system: β-D-ribofuranosidase negative strains; test: Further substrates on agar plates, colony appearance; assay type: cell-based
Description: (§3) The chromogenic β-D-ribofuranoside substrate was added to Columbia agar at a substrate concentration of 300 mg/l. Ferric ammonium citrate was included at 500 mg/l. All ingredients were autoclaved at 116° C. for 20 minutes to ensure sterilisation. Agar plates were then prepared in 90 mm petri dishes. The substrate caused a yellow colouration of the agar.
(§4) For each strain tested, a bacterial suspension was prepared in sterile deionised water at an inoculum of approximately 1.5×10^8 colony forming units per ml. This was achieved using a densitometer. 1 μl of each bacterial suspension was then inoculated onto each plate using a multipoint inoculator. Strains were inoculated in parallel onto Columbia agar containing ferric ammonium citrate with no substrate (negative control).
(§5) After 18 hours incubation, strains were examined visually for the presence of colour. Any strains producing a black colouration on substrate containing media but not on the negative control plates were deemed to be hydrolysing the substrate.
(§6) The same evaluation method as described above in Example 2 was utilised.

[4] = test system: β-D-ribofuranosidase positive strains; test: as above; assay type: cell-based
Description: as §3, §4, §5, §6

[5] = test system: E. coli; test: Hydrolysis on Columbia agar with ferric ammonium citrate; assay type: cell-based; settings: E. coli; weaker reaction
Description: as §3, §4, §5

[6] = test system: Shigella sonnei; test: as above; assay type: cell-based; settings: S. sonnei
Description: as §3, §4, §5

[7] = test system: E. aerogenes; test: as above; assay type: cell-based; settings: E. aerogenes; weaker reaction
Description: as §3, §4, §5

[8] = test system: K. pneumoniae; test: as above; assay type: cell-based; settings: K. pneumoniae
Description: as §3, §4, §5

[9] = test system: E. coli; test: Evaluation with metal salts forming chelates, colour of colonies; assay type: cell-based
Description: as §3, §4, §5, §1

[10] = target: AMP nucleosidase (Escherichia coli, UniProt P0AE12); settings: N-ribohydrolase from E. coli, AMP nucleosidase (Schramm et al, WO97/31008); cited from earlier work
Sequence of AMP nucleosidase (P0AE12 whole entry): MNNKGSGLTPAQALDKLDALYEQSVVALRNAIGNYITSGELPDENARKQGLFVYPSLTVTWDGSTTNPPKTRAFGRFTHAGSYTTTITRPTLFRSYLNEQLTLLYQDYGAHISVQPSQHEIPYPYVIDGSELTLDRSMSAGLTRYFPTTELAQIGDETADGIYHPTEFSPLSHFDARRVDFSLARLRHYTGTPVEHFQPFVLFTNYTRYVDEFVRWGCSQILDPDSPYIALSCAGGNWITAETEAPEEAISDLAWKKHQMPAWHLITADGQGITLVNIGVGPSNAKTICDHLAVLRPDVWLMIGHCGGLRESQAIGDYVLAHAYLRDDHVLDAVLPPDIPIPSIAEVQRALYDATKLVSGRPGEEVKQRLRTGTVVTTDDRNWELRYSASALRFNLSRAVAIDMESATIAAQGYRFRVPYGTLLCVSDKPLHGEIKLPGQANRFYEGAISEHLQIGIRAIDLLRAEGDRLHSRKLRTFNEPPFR

COc1c(-c2ccc(O[C@@H]3O[C@H](CO)[C@@H](O)[C@H]3O)c(O)c2)oc2ccccc2c1=O
Colour of Y. enterocolitica colonies [1]: colourless
Colour of E. coli colonies [2]: bright yellow

3,4-Dihydroxybenzaldehydesemicarbazone-4-β-D-ribofuranoside [Example 1.5]
Colony appearance [3]: cream colonies
Colony appearance [4]: diffuse brown colonies

O=Cc1ccc(OC2OC(CO)C(O)C2O)c(O)c1 [Example 1.4, 3,4-Dihydroxybenzaldehyde-4β-D-ribofuranoside sodium salt]
Colony appearance [3]: cream colonies
Colony appearance [5]: paler colonies
Colony appearance [6]: Dark brown colonies
Colony appearance [7]: paler colonies
Colony appearance [8]: Dark brown colonies

O=C1/C(=C/c2ccc(OC3OC(CO)C(O)C3O)c(O)c2)Oc2ccccc21 [Example 1.7, 3′,4′-Dihydroxyaurone-4′-β-D-ribofuranoside]
Colony appearance [4]: pale brown colonies

COc1c(-c2ccc(O[C@@H]3O[C@H](CO)[C@@H](O)[C@H]3O)c(O)c2)oc2ccccc2c1=O [Example 6, 3′4′-dihydroxy-3-methoxy-flavone-4′-β-D-ribofuranoside]
Colour of colonies ([9]; No metal): Diffuse yellow
Colour of colonies ([9]; metal salt Al 500 mg/l): Yellow
Colour of colonies ([9]; metal salt Ba 500 mg/l): Yellow
Colour of colonies ([9]; metal salt Bi 500 mg/l): Rusty orange
Colour of colonies ([9]; metal salt Co 500 mg/l): No growth
Colour of colonies ([9]; metal salt Fe 500 mg/l): Brown
Colour of colonies ([9]; metal salt Mn 500 mg/l): Pale orange
Colour of colonies ([9]; metal salt Sn 500 mg/l): Yellow
Colour of colonies ([9]; metal salt Sr 500 mg/l): Yellow
Colour of colonies ([9]; metal salt Zn 500 mg/l): No growth

O=[N+]([O-])c1ccc(O[C@@H]2O[C@H](COP(=O)(O)O)[C@@H](O)[C@H]2O)cc1 [p-Nitrophenyl β-D-ribofuranoside-5-phosphate]
Activity as substrate [10]: inactive
